Data from patent publication US20240374570A1, “DRIVING AXON REGENERATION BY NRF2 OVEREXPRESSION AND EDARAVONE APPLICATION” (The Hong Kong University of Science and Technology, priority 2023, published 2024).

System: dorsal root ganglion (DRG) neurons
Test: DRG neurons replating culture, axon growth
Assay type: cell-based, mice
Details: one day treatment, then replated 20 hours under continued treatment, vs DMSO vehicle
Protocol: FIGS. 3A-3B Edaravone promotes axon elongation in DRG replating culture. (FIG. 3A) Representative image of replated DRG neurons treated by the DMSO vehicle control and indicated concentration of edaravone. Scale bar: 400 μm. (FIG. 3B) Quantification of the longest neuron length of the tested concentrations of edaravone. Dots represent the measurement of each neuron.
Primary culture and replating culture of DRG neurons were performed as following protocols. L3-L5 dorsal root ganglia (DRGs) were dissected from adult WT mice and digested in 0.5% collagenase for 90 minutes. Subsequently, the digestion medium was replaced with culture medium (Neurobasal-A supplemented with penicillin-streptomycin and B-27). The digested DRGs were then triturated with a pipette 20-30 times to isolate DRG neurons. The isolated DRG neurons were plated onto a 6-well plate pre-coated with Poly-D-Lysine and laminin. Primary cultured DRG neurons received 1 μM edaravone, 10 μM edaravone or DMSO vehicle treatment for one day. After then, neurons were resuspended and replated to another dish under continue treatment of vehicle/edaravone. The replating culture was terminated with 4% PFA after 20 hours. Tuj1 staining was performed to visualize DRG cell bodies and neurites.
Adult mice dorsal root ganglion (DRG) neurons replating culture was used to investigate the effect of edaravone on axon growth. […]

With `CC1=NN(c2ccccc2)C(=O)C1` [edaravone, 5-methyl-2-phenyl-2,4-dihydro-3H-pyrazol-3-one] the “axon (neurite) growth, longest neuron length” value (1 μM) was “significant growth-promoting effect” and the “axon (neurite) growth, longest neuron length” value (10 μM) was “significant growth-promoting effect”.
